Laboratory results reported in publication PMC7673538 (PLoS Biology, 2020).
Like-named read-outs stand apart in the source and are kept apart here.

Key:
EV-A71 = test: microbe, parasite or virus in culture; assay type: cell-based, enterovirus A71; conditions: Enterovirus A
CV-B3 [1] = test: microbe, parasite or virus in culture; assay type: cell-based, coxsackievirus B3; conditions: for EC50: Enterovirus B
PV-1 = test: microbe, parasite or virus in culture; assay type: cell-based, poliovirus 1; conditions: Enterovirus C
CV-A24 = test: microbe, parasite or virus in culture; assay type: cell-based, coxsackievirus A24; conditions: Enterovirus C
EV-D68 = test: microbe, parasite or virus in culture; assay type: cell-based, enterovirus D68; conditions: Enterovirus D
HRV-A2 = test: microbe, parasite or virus in culture; assay type: cell-based, human rhinovirus; conditions: Human rhinovirus sp., HRVA2, HeLa R19, read-out: EC50 HRV-A2
HRV-B14 = test: microbe, parasite or virus in culture; assay type: cell-based, human rhinovirus; conditions: Human rhinovirus sp.
CV-B3 [2] = test: microbe, parasite or virus in culture; assay type: cell-based, coxsackievirus B3; conditions: Enterovirus B
CV-B3 [3] = test: microbe, parasite or virus in culture; assay type: cell-based, coxsackievirus B3; conditions: Enterovirus B, CVB3, BGM
[4] = test system: representative EVs and RVs; assay type: cell-based
in vitro [5] = conditions: human
in vitro [6] = conditions: human; remark: listed apart in the source
in vitro [7] = conditions: monkey
[8] = EVA71, HeLa R19, read-out: EC50 EV-A71
[9] = EVA71, HeLa R19, read-out: EC50 Exp1
[10] = EVA71, HeLa R19, read-out: EC50 Exp2
[11] = CVB3, HeLa R19, read-out: CV-B3 EC50 Average
[12] = CVB3, HeLa R19, read-out: CV-B3 Exp 1 EC50
[13] = CVB3, HeLa R19, read-out: CV-B3 Exp2 EC50
[14] = CVB3, HeLa R19, read-out: Exp 1 EC50 HelaR19
[15] = CVB3, HeLa R19, read-out: Exp 2 EC50 HelaR19
[16] = CVA24, HeLa R19, read-out: EC50 Exp1
[17] = CVA24, HeLa R19, read-out: EC50 Exp2
[18] = EVD68, HeLa R19, read-out: EC50 EV-D68
[19] = EVD68, HeLa R19, read-out: EC50 Exp1
[20] = EVD68, HeLa R19, read-out: EC50 Exp2
[21] = HRVB14, HeLa R19, read-out: EC50 HRV-B14
[22] = CVB3, HAP1, read-out: EC50 Hap1 Average
[23] = CVB3, HAP1, read-out: Exp 1 EC50 Hap1
[24] = CVB3, HAP1, read-out: Exp 2 EC50 Hap1

Question: What does the source list for `Cc1ccc(CN(C(=O)c2ccco2)c2ccccc2)cc1` [Compound 19g, N-(4-Methylbenzyl)-N-phenylfuran-2-carboxamide]?
Answer: EC50 (EV-A71; [8]): 0.6 ± 0.14 µM; EC50 (EV-A71; [9]): 0.46 µM; EC50 (EV-A71; [10]): 0.73 µM; effect of the substitution on antiviral activity against CV-B3 (in words) (CV-B3 [1]): only marginally affected antiviral activity; EC50 (CV-B3 [1]; [11]): 0.88 µM; EC50 (CV-B3 [1]; [12]): 0.86 µM; EC50 (CV-B3 [1]; [13]): 0.89 µM; EC50 (CV-B3 [1]; [14]): 1.02 µM; EC50 (CV-B3 [1]; [15]): 1.69 µM; EC50 (PV-1; HeLa R19, read-out: EC50 Exp1): 16.5 µM; EC50 (PV-1; HeLa R19, read-out: EC50 Exp2): 18.5 µM; EC50 (PV-1; HeLa R19, read-out: EC50 PV-1): 17.5 ± 1 µM; EC50 (CV-A24; [16]): 9.29 µM; EC50 (CV-A24; [17]): 11 µM; EC50 (EV-D68; EVD68, HeLa R19, read-out: EC50 Average): 1.48 µM; EC50 (EV-D68; [18]): 1.49 ± 0.08 µM; EC50 (EV-D68; [19]): 1.56 µM; EC50 (EV-D68; [20]): 1.41 µM; EC50 (HRV-A2): > 30 µM; EC50 (HRV-B14; HRVB14, HeLa R19, read-out: EC50 Average): 12.6 µM; EC50 (HRV-B14; HRVB14, HeLa R19, read-out: EC50 Exp1): 13.6 µM; EC50 (HRV-B14; HRVB14, HeLa R19, read-out: EC50 Exp2): 11.5 µM; EC50 (HRV-B14; [21]): 12.5 ± 1.05 µM; EC50 (CV-B3 [2]; [22]): 2.38 µM; EC50 (CV-B3 [2]; [23]): 2.08 µM; EC50 (CV-B3 [2]; [24]): 2.68 µM; EC50 (CV-B3 [3]): 1.7 ± 0.26 µM; EC50 (CV-B3 [3]; read-out: EC50 BGM Average): 1.69 µM; EC50 (CV-B3 [3]; read-out: Exp 1 EC50 BGM): 1.95 µM; EC50 (CV-B3 [3]; read-out: Exp 2 EC50 BGM): 1.44 µM; spectrum of antiviral activity (in words) [4]: anti-EV activity but not anti-RV activity; cytotoxicity (in words) (HeLa R19 cells): did not show any cytotoxicity; CC50 (in vitro [5]; CC50 Average): > 30 µM; CC50 (in vitro [5]; CC50 HelaR19 Average): > 100 µM; CC50 (in vitro [5]; Exp 1 CC50): > 30 µM; CC50 (in vitro [5]; Exp 1 CC50 HelaR19): > 100 µM; CC50 (in vitro [5]; Exp2 CC50): > 30 µM; CC50 (in vitro [5]; Exp 2 CC50 HelaR19): > 100 µM; CC50 (in vitro [6]; CC50): > 100 µM; CC50 (in vitro [6]; CC50 Hap1 Average): > 100 µM; CC50 (in vitro [6]; Exp 1 CC50 Hap1): > 100 µM; CC50 (in vitro [6]; Exp 2 CC50 Hap1): > 100 µM; CC50 (in vitro [7]; CC50): > 100 µM; CC50 (in vitro [7]; CC50 BGM Average): > 100 µM; CC50 (in vitro [7]; Exp 1 CC50 BGM): > 100 µM; CC50 (in vitro [7]; Exp 2 CC50 BGM): > 100 µM

Question: With `O=C(c1ccco1)N(Cc1ccccc1)c1ccccc1` [Compound 19a, N-Benzyl-N-phenylfuran-2-carboxamide] as the compound, how does the EC50 (EV-A71; [8]) read?
Answer: 3.5 ± 0.31 µM

Question: What about the EC50 (EV-A71; [9]) of the same compound?
Answer: 3.19 µM

Question: What about the EC50 (EV-A71; [10]) of the same compound?
Answer: 3.8 µM

Question: What about the “increase or decrease of antiviral activity against CV-B3” value (CV-B3 [1]) of the same compound?
Answer: less than 3 fold

Question: What about the EC50 (CV-B3 [1]; [11]) of the same compound?
Answer: 0.91 µM

Question: And the EC50 (CV-B3 [1]; [12])?
Answer: 0.88 µM

Question: And the EC50 (CV-B3 [1]; [13])?
Answer: 0.94 µM

Question: What about the EC50 (CV-B3 [1]; CVB3, HeLa R19, read-out: EC50 HelaR19 Average) of the same compound?
Answer: 1.62 µM

Question: What about the EC50 (CV-B3 [1]; [14]) of the same compound?
Answer: 1.25 µM

Question: What about the EC50 (CV-B3 [1]; [15]) of the same compound?
Answer: 1.98 µM

Question: And the EC50 (PV-1; HeLa R19, read-out: EC50 Exp1)?
Answer: 31.5 µM

Question: What about the EC50 (PV-1; HeLa R19, read-out: EC50 Exp2) of the same compound?
Answer: 33.6 µM

Question: And the EC50 (PV-1; HeLa R19, read-out: EC50 PV-1)?
Answer: 32.6 ± 1.08 µM

Question: What about the EC50 (CV-A24; CVA24, HeLa R19, read-out: EC50 CV-A24) of the same compound?
Answer: 21.48 ± 0.03 µM

Question: What about the EC50 (CV-A24; [16]) of the same compound?
Answer: 21.5 µM

Question: And the EC50 (CV-A24; [17])?
Answer: 21.4 µM

Question: And the EC50 (EV-D68; [18])?
Answer: 1.34 ± 0.45 µM

Question: And the EC50 (EV-D68; [19])?
Answer: 1.79 µM

Question: What about the EC50 (EV-D68; [20]) of the same compound?
Answer: 0.89 µM

Question: What about the EC50 (HRV-A2) of the same compound?
Answer: > 30 µM

Question: What about the EC50 (HRV-B14; [21]) of the same compound?
Answer: > 30 µM

Question: And the EC50 (CV-B3 [2]; [22])?
Answer: 0.73 µM

Question: And the EC50 (CV-B3 [2]; [23])?
Answer: 0.48 µM

Question: And the EC50 (CV-B3 [2]; [24])?
Answer: 0.97 µM

Question: And the EC50 (CV-B3 [3]; read-out: EC50 BGM Average)?
Answer: 1.84 µM

Question: And the EC50 (CV-B3 [3]; read-out: Exp 1 EC50 BGM)?
Answer: 1.9 µM

Question: And the EC50 (CV-B3 [3]; read-out: Exp 2 EC50 BGM)?
Answer: 1.77 µM

Question: And the “spectrum of antiviral activity (in words)” value [4]?
Answer: anti-EV activity but not anti-RV activity

Question: And the “cytotoxicity (in words)” value (HeLa R19 cells)?
Answer: did not show any cytotoxicity

Question: And the CC50 (in vitro [5]; CC50 Average)?
Answer: > 30 µM

Question: What about the CC50 (in vitro [5]; CC50 HelaR19 Average) of the same compound?
Answer: > 100 µM

Question: What about the CC50 (in vitro [5]; Exp 1 CC50) of the same compound?
Answer: > 30 µM

Question: What about the CC50 (in vitro [5]; Exp 1 CC50 HelaR19) of the same compound?
Answer: > 100 µM

Question: And the CC50 (in vitro [5]; Exp2 CC50)?
Answer: > 30 µM

Question: And the CC50 (in vitro [5]; Exp 2 CC50 HelaR19)?
Answer: > 100 µM

Question: What about the CC50 (in vitro [6]; CC50) of the same compound?
Answer: > 100 µM

Question: What about the CC50 (in vitro [6]; CC50 Hap1 Average) of the same compound?
Answer: > 100 µM

Question: What about the CC50 (in vitro [6]; Exp 1 CC50 Hap1) of the same compound?
Answer: > 100 µM

Question: And the CC50 (in vitro [6]; Exp 2 CC50 Hap1)?
Answer: > 100 µM

Question: And the CC50 (in vitro [7]; CC50)?
Answer: > 100 µM

Question: And the CC50 (in vitro [7]; CC50 BGM Average)?
Answer: > 100 µM

Question: And the CC50 (in vitro [7]; Exp 1 CC50 BGM)?
Answer: > 100 µM

Question: What about the CC50 (in vitro [7]; Exp 2 CC50 BGM) of the same compound?
Answer: > 100 µM
